# From patent publication US9999222B2, “Herbicidal combination comprising azines” (BASF SE, priority 2014, dated 2018)
# Values joined by “and” are separate entries in the source; they are usually repeats but may differ in a detail not shown here. Equal entries are not always repeated. Where two headings read alike, the source gives them in different places.
# Assays:
# Assay in all cases: Greenhouse test, pre-emergence treatment
# [1] = system: ABUTH; format: in vivo, Abutilon theophrasti; details: Abutilon theophrasti, 480 h, read-out: observed % activity 20 DAT
# Procedure, shortened: (§1)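 Seeds were sown in loamy sand with approximately 3.0% humus, then sprayed at once with actives suspended or emulsified in water. Pots were watered, hooded until rooting, held at 10-25° C. or 20-35° C. by species for 2 to 4 weeks, and scored 0 (no damage) to 100 (no emergence/complete destruction).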
# [2] = system: ALOMY; format: in vivo, Alopecurus myosuroides; details: pre-emergence, pre-emergence
# Procedure, shortened: as §1
# [3] = system: ECHCG; format: in vivo, Echinocloa crus-galli
# Procedure, shortened: as §1
# [4] = system: POLCO; format: in vivo, Polygonum convolvulus; details: pre-emergence
# Procedure, shortened: as §1
# [5] = system: AVEFA; format: in vivo, Avena fatua; details: Avena fatua, pre-emergence, 480 h, pre-emergence, read-out: observed % activity 20 DAT
# Procedure, shortened: as §1
# [6] = system: BRADC; format: in vivo, Brachiaria decumbens; details: pre-emergence, pre-emergence
# Procedure, shortened: as §1
# [7] = system: COMBE; format: in vivo, Commelina benghalensis; details: pre-emergence
# Procedure, shortened: as §1
# [8] = system: ELEIN; format: in vivo, Eleusine indica
# Text: The culture containers used were plastic flowerpots containing loamy sand with approximately 3.0% of humus as the substrate. The seeds of the test plants were sown separately for each species.
# For the pre-emergence treatment, the active ingredients, which had been suspended or emulsified in water, were applied directly after sowing by means of finely distributing nozzles. The containers were irrigated gently to promote germination and growth and subsequently covered with transparent plastic hoods until the plants had rooted. This cover caused uniform germination of the test plants, unless this had been impaired by the active ingredients.
# Depending on the species, the plants were kept at 10-25° C. or 20-35° C., respectively.
# The test period extended over 2 to 4 weeks. During this time, the plants were tended, and their response to the individual treatments was evaluated.
# Evaluation was carried out using a scale from 0 to 100. 100 means no emergence of the plants, or complete destruction of at least the aerial moieties, and 0 means no damage, or normal course of growth. A moderate herbicidal activity is given at values of at least 60, a good herbicidal activity is given at values of at least 70, and a very good herbicidal activity is given at values of at least 85.
# The respective stated components a and b, and if appropriate, c were formulated as a 10% by weight strength emulsion concentrate and, with addition of the amount of solvent system, introduced into the spray liquor used for applying the active compound.
# In the examples, the solvent used was water.
# In the examples below, using the method of S. R. Colby (1967) “Calculating synergistic and antagonistic responses of herbicide combinations”, Weeds 15, p. 22ff., the value E, which is expected if the activity of the individual active compounds is only additive, was calculated. E=X+Y−(X·Y/100) where • X=percent activity using active compound a at an application rate A; • Y=percent activity using active compound b at an application rate B; • E=expected activity (in %) by a+b at application rates A+B.
# If the value found experimentally is higher than the value E calculated according to Colby, a synergistic effect is present.
# [9] = system: EPHHL; format: in vivo, Euphorbia heterophylla; details: pre-emergence
# Procedure, shortened: as §1
# [10] = system: GALAP; format: in vivo, Galium aparine; details: pre-emergence
# Procedure, shortened: as §1
# [11] = system: GERPU; format: in vivo, Geranium pusillum; details: pre-emergence
# Procedure, shortened: as §1
# [12] = system: KCHSC; format: in vivo, Kochia scoparia; details: pre-emergence
# Procedure, shortened: as §1
# [13] = system: LOLMU; format: in vivo, Lolium multiflorum; details: pre-emergence, pre-emergence
# Procedure, shortened: as §1
# [14] = system: PHACA; format: in vivo, Phalaris canariensis; details: Phalaris canariensis, pre-emergence, 480 h, pre-emergence, read-out: observed % activity 20 DAT
# Procedure, shortened: as §1
# [15] = Alopecurus myosuroides, 480 h, 2 g ai/ha, read-out: observed % activity 20 DAT
# [16] = Echinochloa crus-galli, 480 h, 4 g ai/ha, read-out: observed % activity 20 DAT
# [17] = Fallopia convolvulus, 480 h, 4 g ai/ha, read-out: observed % activity 20 DAT
# [18] = Commelina benghalensis, 480 h, 4 g ai/ha, read-out: observed % activity 20 DAT
# [19] = Euphorbia heterophylla, 480 h, 8 g ai/ha, read-out: observed % activity 20 DAT
# [20] = Galium aparine, 480 h, 4 g ai/ha, read-out: observed % activity 20 DAT
# [21] = Galium aparine, 480 h, 8 g ai/ha, read-out: observed % activity 20 DAT
# [22] = Bassia scoparia, 480 h, 4 g ai/ha, read-out: observed % activity 20 DAT
# [23] = Bassia scoparia, 480 h, 8 g ai/ha, read-out: observed % activity 20 DAT
# [24] = Lolium multiflorum, 480 h, 2 g ai/ha, read-out: observed % activity 20 DAT
# [25] = Lolium multiflorum, 480 h, 8 g ai/ha, read-out: observed % activity 20 DAT
smiles,measurement,setting,value
"Nc1nc(Nc2c(F)c(F)cc(F)c2F)nc(C2(F)CCCC2)n1 [compound 9, 6-(1-fluorocyclopentyl)-N4-(2,3,5,6-tetrafluorophenyl)-1,3,5-triazine-2,4-diamine]",pest or weed control at 4 g/ha,[1]; 4 g ai/ha,55%
same,inhibition at 8 g/ha,[1]; 8 g ai/ha,20%
same,pest or weed control at 8 g/ha,[1]; 8 g ai/ha,40%
same,inhibition at 16 g/ha,[1]; 16 g ai/ha,20%
same,inhibition at 8 g/ha,"[1]; ABUTH, individual, use rate 8 g ai/ha",20%
same,inhibition at 16 g/ha,"[1]; ABUTH, individual, use rate 16 g ai/ha",20%
same,inhibition at 2 g/ha,[2]; [15],75%
same,pest or weed control at 2 g/ha,[2]; [15],75%
same,pest or weed control at 8 g/ha,"[2]; Alopecurus myosuroides, 480 h, 8 g ai/ha, read-out: observed % activity 20 DAT",98%
same,observed % activity 20 DAT,[2]; 2 g ai/ha,70%
same,observed % activity 20 DAT,[2]; 4 g ai/ha,45%
same,observed % activity 20 DAT,[3]; 2 g ai/ha,70%
same,inhibition at 2 g/ha,"[3]; Echinochloa crus-galli, 480 h, 2 g ai/ha, read-out: observed % activity 20 DAT",75%
same,inhibition at 4 g/ha,[3]; [16],90%
same,pest or weed control at 4 g/ha,[3]; [16],85%
same,pest or weed control at 4 g/ha,[4]; [17],20%
same,pest or weed control at 8 g/ha,"[4]; Fallopia convolvulus, 480 h, 8 g ai/ha, read-out: observed % activity 20 DAT",80%
same,inhibition at 8 g/ha,"[4]; Fallopia convolvulus, 480 h, POLCO, individual, use rate 8 g ai/ha, read-out: observed % activity 20 DAT",50%
same,inhibition at 16 g/ha,"[4]; Fallopia convolvulus, 480 h, POLCO, individual, use rate 16 g ai/ha, read-out: observed % activity 20 DAT",70%
same,inhibition at 4 g/ha,[4]; [17],20%
same,inhibition at 16 g/ha,"[4]; Fallopia convolvulus, 480 h, 16 g ai/ha, read-out: observed % activity 20 DAT",80%
same,observed % activity 20 DAT,[4]; 8 g ai/ha,75%
same,inhibition at 2 g/ha,[5]; 2 g ai/ha,0%
same,inhibition at 8 g/ha,[5]; 8 g ai/ha,0%
same,inhibition at 2 g/ha,"[6]; Urochloa decumbens, 480 h, 2 g ai/ha, read-out: observed % activity 20 DAT",20%
same,inhibition at 4 g/ha,"[6]; Urochloa decumbens, 480 h, 4 g ai/ha, read-out: observed % activity 20 DAT",55%
same,inhibition at 8 g/ha,"[6]; Urochloa decumbens, 480 h, 8 g ai/ha, read-out: observed % activity 20 DAT",35%
same,observed % activity 20 DAT,[6]; 4 g ai/ha,40%
same,observed % activity 20 DAT,"[7]; COMBE, individual, use rate 16 g ai/ha",35% and 15%
same,pest or weed control at 4 g/ha,[7]; [18],25%
same,pest or weed control at 8 g/ha,"[7]; Commelina benghalensis, 480 h, 8 g ai/ha, read-out: observed % activity 20 DAT",65%
same,inhibition at 8 g/ha,"[7]; Commelina benghalensis, 480 h, COMBE, individual, use rate 8 g ai/ha, read-out: observed % activity 20 DAT",20%
same,inhibition at 4 g/ha,[7]; [18],25%
same,inhibition at 16 g/ha,"[7]; Commelina benghalensis, 480 h, 16 g ai/ha, read-out: observed % activity 20 DAT",20%
same,observed % activity 20 DAT,[7]; 16 g ai/ha,35%
same,observed % activity 20 DAT,[8]; 2 g ai/ha,95%
same,inhibition at 2 g/ha,"[8]; Eleusine indica, 480 h, 2 g ai/ha, read-out: observed % activity 20 DAT",95%
same,inhibition at 4 g/ha,"[8]; Eleusine indica, 480 h, 4 g ai/ha, read-out: observed % activity 20 DAT",98%
same,observed % activity 20 DAT,"[9]; EPHHL, individual, use rate 8 g ai/ha",30%
same,inhibition at 8 g/ha,"[9]; Euphorbia heterophylla, 480 h, EPHHL, individual, use rate 8 g ai/ha, read-out: observed % activity 20 DAT",25%
same,inhibition at 16 g/ha,"[9]; Euphorbia heterophylla, 480 h, EPHHL, individual, use rate 16 g ai/ha, read-out: observed % activity 20 DAT",15%
same,pest or weed control at 4 g/ha,"[9]; Euphorbia heterophylla, 480 h, 4 g ai/ha, read-out: observed % activity 20 DAT",25%
same,inhibition at 8 g/ha,[9]; [19],10%
same,pest or weed control at 8 g/ha,[9]; [19],10%
same,inhibition at 16 g/ha,"[9]; Euphorbia heterophylla, 480 h, 16 g ai/ha, read-out: observed % activity 20 DAT",20%
same,observed % activity 20 DAT,"[10]; GALAP, individual, use rate 8 g ai/ha",50%
same,pest or weed control at 4 g/ha,[10]; [20],55%
same,pest or weed control at 8 g/ha,[10]; [21],90%
same,inhibition at 8 g/ha,"[10]; Galium aparine, 480 h, GALAP, individual, use rate 8 g ai/ha, read-out: observed % activity 20 DAT",70%
same,inhibition at 16 g/ha,"[10]; Galium aparine, 480 h, GALAP, individual, use rate 16 g ai/ha, read-out: observed % activity 20 DAT",60%
same,inhibition at 4 g/ha,[10]; [20],55%
same,inhibition at 8 g/ha,[10]; [21],70%
same,inhibition at 16 g/ha,"[10]; Galium aparine, 480 h, 16 g ai/ha, read-out: observed % activity 20 DAT",60%
same,observed % activity 20 DAT,"[11]; GERPU, individual, use rate 16 g ai/ha",30% and 60%
same,inhibition at 8 g/ha,"[11]; Geranium pusillum, 480 h, GERPU, individual, use rate 8 g ai/ha, read-out: observed % activity 20 DAT",40%
same,pest or weed control at 4 g/ha,"[11]; Geranium pusillum, 480 h, 4 g ai/ha, read-out: observed % activity 20 DAT",20%
same,inhibition at 8 g/ha,"[11]; Geranium pusillum, 480 h, 8 g ai/ha, read-out: observed % activity 20 DAT",40%
same,observed % activity 20 DAT,[11]; 16 g ai/ha,60% and 30%
same,pest or weed control at 4 g/ha,[12]; [22],50%
same,pest or weed control at 8 g/ha,[12]; [23],85%
same,inhibition at 7 g/ha,"[12]; Bassia scoparia, 480 h, KCHSC, individual, use rate 7 g ai/ha, read-out: observed % activity 20 DAT",75%
same,inhibition at 8 g/ha,"[12]; Bassia scoparia, 480 h, KCHSC, individual, use rate 8 g ai/ha, read-out: observed % activity 20 DAT",90%
same,inhibition at 16 g/ha,"[12]; Bassia scoparia, 480 h, KCHSC, individual, use rate 16 g ai/ha, read-out: observed % activity 20 DAT",90%
same,inhibition at 4 g/ha,[12]; [22],70%
same,inhibition at 8 g/ha,[12]; [23],75%
same,inhibition at 16 g/ha,"[12]; Bassia scoparia, 480 h, 16 g ai/ha, read-out: observed % activity 20 DAT",90%
same,observed % activity 20 DAT,"[12]; KCHSC, individual, use rate 16 g ai/ha",80%
same,observed % activity 20 DAT,[12]; 16 g ai/ha,80%
same,inhibition at 2 g/ha,[13]; [24],0%
same,pest or weed control at 2 g/ha,[13]; [24],0%
same,inhibition at 8 g/ha,[13]; [25],75%
same,pest or weed control at 8 g/ha,[13]; [25],75%
same,observed % activity 20 DAT,[13]; 8 g ai/ha,80%
same,inhibition at 2 g/ha,[14]; 2 g ai/ha,0%
same,pest or weed control at 2 g/ha,[14]; 2 g ai/ha,0%
same,inhibition at 8 g/ha,[14]; 8 g ai/ha,50%
same,pest or weed control at 8 g/ha,[14]; 8 g ai/ha,70%
